In patent US20220135591A1, “HETEROCYCLIC COMPOUNDS AS INHIBITORS OF MONOACYLGLYCEROL LIPASE (MAGL)” (Hoffmann-La Roche Inc., priority 2019, published 2022):

The molecules below were run against T1, MAGL (recombinant wild-type) (Homo sapiens, UniProt Q99685) (assay: 4-NPA assay: MAGL inhibitory activity by hydrolysis of 4-nitrophenylacetate, absorbance at 405 nm). Details: 4-NPA assay (values without footnote [b]).
T1 sequence (Q99685 1-303): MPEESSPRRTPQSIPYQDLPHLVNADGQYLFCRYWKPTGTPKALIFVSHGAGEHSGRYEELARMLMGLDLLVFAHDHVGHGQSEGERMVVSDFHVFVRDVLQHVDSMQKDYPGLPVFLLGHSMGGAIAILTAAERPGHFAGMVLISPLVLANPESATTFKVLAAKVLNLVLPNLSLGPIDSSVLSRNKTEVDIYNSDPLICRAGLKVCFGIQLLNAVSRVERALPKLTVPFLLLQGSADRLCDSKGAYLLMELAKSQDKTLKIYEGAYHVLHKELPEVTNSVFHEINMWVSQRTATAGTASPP
Format: biochemical
Outline: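 Final assay: 1 nM MAGL and 300 μM 4-nitrophenylacetate in 50 mM Tris, 1 mM EDTA, at RT. Compounds (25 μM–1.7 nM, 3-fold steps) were preincubated 15 min with enzyme. A405 was read 5 min after substrate addition and again after 80 min; activity was taken as the difference between reads.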

SMILES	IC50 [nM]
Cc1ccc2oc(N3CCN(C(=O)c4ccc(OCc5cccc(Cl)c5)c(-c5ncc[nH]5)c4)CC3)nc2n1 [Example 199, [4-[(3-chlorophenyl)methoxy]-3-(1H-imidazol-2-yl)phenyl]-[4-(5-methyl-[1,3]oxazolo[4,5-b]pyridin-2-yl)piperazin-1-yl]methanone]	625
Cc1ccc2oc(N3CCN(C(=O)c4ccc(N5CC(O[C@@H](C)C(F)(F)F)C5)cc4)CC3)nc2n1 [Example 200, (S)-(4-(5-methyloxazolo[4,5-b]pyridin-2-yl)piperazin-1-yl)(4-(3-((1,1,1-trifluoropropan-2-yl)oxy)azetidin-1-yl)phenyl)methanone]	15
Cc1ccc2oc(N3CCN(C(=O)c4ccc(N5CC(O[C@H](C)C(F)(F)F)C5)cc4)CC3)nc2n1 [Example 201, (R)-(4-(5-methyloxazolo[4,5-b]pyridin-2-yl)piperazin-1-yl)(4-(3-((1,1,1-trifluoropropan-2-yl)oxy)azetidin-1-yl)phenyl)methanone]	38
O=C(c1ccc(N2CC3(CCC3(F)F)C2)cc1)N1CCN(c2nc3nc(Cl)ccc3o2)CC1 [Example 203, [4-(5-chloro-[1,3]oxazolo[4,5-b]pyridin-2-yl)piperazin-1-yl]-[4-(7,7-difluoro-2-azaspiro[3.3]heptan-2-yl)phenyl]methanone]	35
CC(C)(C)OC1CN(c2ccc(C(=O)N3CCN(c4nc5nc(Cl)ccc5o4)CC3)cc2)C1 [Example 204, (4-(3-(tert-butoxy)azetidin-1-yl)phenyl)(4-(5-chlorooxazolo[4,5-b]pyridin-2-yl)piperazin-1-yl)methanone]	18
CC(OC1CN(c2ccc(C(=O)N3CCN(c4nc5nc(Cl)ccc5o4)CC3)cc2)C1)C(F)(F)F (stereo not shown) [Example 208, (4-(5-chlorooxazolo[4,5-b]pyridin-2-yl)piperazin-1-yl)(4-(3-((1,1,1-trifluoropropan-2-yl)oxy)azetidin-1-yl)phenyl)methanone]	16
Cc1ccc2oc(N3CCN(C(=O)c4ccc(N5CC(OC(C)C(F)(F)F)C5)cc4C)CC3)nc2n1 (stereo not shown) [Example 211, (2-methyl-4-(3-((1,1,1-trifluoropropan-2-yl)oxy)azetidin-1-yl)phenyl)(4-(5-methyloxazolo[4,5-b]pyridin-2-yl)piperazin-1-yl)methanone]	346
Cc1ccc2oc(N3CCN(C(=O)c4ccc(N5CC(OC(C)C(F)(F)F)C5)cc4Cl)CC3)nc2n1 (stereo not shown) [Example 213, (2-chloro-4-(3-((1,1,1-trifluoropropan-2-yl)oxy)azetidin-1-yl)phenyl)(4-(5-methyloxazolo[4,5-b]pyridin-2-yl)piperazin-1-yl)methanone]	99
Cc1ccc2oc(N3CCN(C(=O)c4cnc(N5CC(OC(C)C(F)(F)F)C5)c(C)c4)CC3)nc2n1 (stereo not shown) [Example 216, (5-methyl-6-(3-((1,1,1-trifluoropropan-2-yl)oxy)azetidin-1-yl)pyridin-3-yl)(4-(5-methyloxazolo[4,5-b]pyridin-2-yl)piperazin-1-yl)methanone]	113
Cc1ccc2oc(N3CCN(C(=O)c4cnc(N5CC(OC(C)C(F)(F)F)C5)c(F)c4Cl)CC3)nc2n1 (stereo not shown) [Example 217, (4-chloro-5-fluoro-6-(3-((1,1,1-trifluoropropan-2-yl)oxy)azetidin-1-yl)pyridin-3-yl)(4-(5-methyloxazolo[4,5-b]pyridin-2-yl)piperazin-1-yl)methanone]	167
Cc1ccc2oc(N3CCN(C(=O)c4cnc(N5CC(OC(C)C(F)(F)F)C5)nc4)CC3)nc2n1 (stereo not shown) [Example 219, (4-(5-methyloxazolo[4,5-b]pyridin-2-yl)piperazin-1-yl)(2-(3-((1,1,1-trifluoropropan-2-yl)oxy)azetidin-1-yl)pyrimidin-5-yl)methanone]	220
Cc1ccc2oc(N3CCN(C(=O)c4cnc(N5CC(OC(C)C(F)(F)F)C5)cc4C)CC3)nc2n1 (stereo not shown) [Example 220, (4-methyl-6-(3-((1,1,1-trifluoropropan-2-yl)oxy)azetidin-1-yl)pyridin-3-yl)(4-(5-methyloxazolo[4,5-b]pyridin-2-yl)piperazin-1-yl)methanone]	4000

Continued by falling IC50, values first:

IC50 [nM]	SMILES
1540	Cc1ccc2oc(N3CCN(C(=O)c4ccc(N5CC(OC(C)C(F)(F)F)C5)nn4)CC3)nc2n1 (stereo not shown) [Example 218, (4-(5-methyloxazolo[4,5-b]pyridin-2-yl)piperazin-1-yl)(6-(3-((1,1,1-trifluoropropan-2-yl)oxy)azetidin-1-yl)pyridazin-3-yl)methanone]
1130	Cc1ccc2oc(N3CCN(C(=O)c4c(F)cc(N5CC(OC(C)C(F)(F)F)C5)cc4F)CC3)nc2n1 (stereo not shown) [Example 212, (2,6-difluoro-4-(3-((1,1,1-trifluoropropan-2-yl)oxy)azetidin-1-yl)phenyl)(4-(5-methyloxazolo[4,5-b]pyridin-2-yl)piperazin-1-yl)methanone]
235	CCOC1(C)CN(c2ccc(C(=O)N3CCN(c4nc5nc(Cl)ccc5o4)CC3)cc2)C1 [Example 209, (4-(5-chlorooxazolo[4,5-b]pyridin-2-yl)piperazin-1-yl)(4-(3-ethoxy-3-methylazetidin-1-yl)phenyl)methanone]
170	Cc1ccc2oc(N3CCN(C(=O)c4ccc(N5CC(OC(C)C(F)(F)F)C5)nc4)CC3)nc2n1 (stereo not shown) [Example 214, (4-(5-methyloxazolo[4,5-b]pyridin-2-yl)piperazin-1-yl)(6-(3-((1,1,1-trifluoropropan-2-yl)oxy)azetidin-1-yl)pyridin-3-yl)methanone]
70	CCC(C)(C)OC1CN(c2ccc(C(=O)N3CCN(c4nc5nc(C)ccc5o4)CC3)cn2)C1 [Example 215, (4-(5-methyloxazolo[4,5-b]pyridin-2-yl)piperazin-1-yl)(6-(3-(tert-pentyloxy)azetidin-1-yl)pyridin-3-yl)methanone]
61	Cc1ccc2oc(N3CCN(C(=O)c4ccc(N5CC6(CCC6(F)F)C5)cc4)CC3)nc2n1 [Example 206, (4-(5,5-difluoro-2-azaspiro[3.3]heptan-2-yl)phenyl)(4-(5-methyloxazolo[4,5-b]pyridin-2-yl)piperazin-1-yl)methanone]
24	Cc1ccc2oc(N3CCN(C(=O)c4ccc(N5CC(OC(C)C(F)(F)F)C5)c(F)c4)CC3)nc2n1 (stereo not shown) [Example 210, (3-fluoro-4-(3-((1,1,1-trifluoropropan-2-yl)oxy)azetidin-1-yl)phenyl)(4-(5-methyloxazolo[4,5-b]pyridin-2-yl)piperazin-1-yl)methanone]
16	Cc1ccc2oc(N3CCN(C(=O)c4ccc(N5CC(OC(C)C(F)(F)F)C5)cc4F)CC3)nc2n1 (stereo not shown) [Example 207, (2-fluoro-4-(3-((1,1,1-trifluoropropan-2-yl)oxy)azetidin-1-yl)phenyl)(4-(5-methyloxazolo[4,5-b]pyridin-2-yl)piperazin-1-yl)methanone]
14	O=C(c1ccc(N2CCC3(C2)CC3(F)F)cc1)N1CCN(c2nc3nc(Cl)ccc3o2)CC1 (stereo not shown) [Example 202, [4-(5-chloro-[1,3]oxazolo[4,5-b]pyridin-2-yl)piperazin-1-yl]-[4-(2,2-difluoro-5-azaspiro[2.4]heptan-5-yl)phenyl]methanone]
5	CCC(C)(C)OC1CN(c2ccc(C(=O)N3CCN(c4nc5nc(Cl)ccc5o4)CC3)cc2)C1 [Example 205, (4-(5-chlorooxazolo[4,5-b]pyridin-2-yl)piperazin-1-yl)(4-(3-(tert-pentyloxy)azetidin-1-yl)phenyl)methanone]
